Experiment: Inhibition of [3H]NMS binding to muscarinic receptor in mouse N4TG1 neuroblastoma cells

In the case of `CN1CCCCC1COC(=O)C(C)(c1ccccc1)c1ccccc1` (stereo not drawn), the pKi is reported as 6.8.

With `C[n+]1cscc1C(C)(C)OC(=O)c1ccccc1` the pKi was 5.5.

`CN1CC2CC1C[C@H](OC(=O)C(C)(c1ccccc1)c1ccccc1)C2` (stereo partly drawn) showed a pKi of 8.3.

`CN1CCC(OC(=O)C(C)(c2ccccc2)c2ccccc2)C1` (stereo not drawn) gave a pKi of 7.8.

`C[N+](C)(C)CCOC(=O)C(c1ccccc1)c1ccccc1` gave a pKi of 7.1.

For `CN1CCC2CC1C[C@@H](OC(=O)C(C)(c1ccccc1)c1ccccc1)C2` (stereo partly drawn), the pKi was 8.3.

Work on `CCN1CCC(OC(=O)C(C)(c2ccccc2)c2ccccc2)CC1` yielded a pKi of 9.

`CCN(CC)CCOC(=O)C(C)(c1ccccc1)c1ccccc1` [APROFENE] gave a pKi of 8.2.

`CN1CCC(COC(=O)C(C)(c2ccccc2)c2ccccc2)CC1` showed a pKi of 7.7.

Compound `CN1[C@@H]2CC[C@H]1C[C@@H](OC(=O)C(CO)c1ccccc1)C2` (stereo partly drawn) [ATROPINE] has a pKi of 8.4.

For `CN1C2CC[C@H]1C[C@@H](OC(=O)C(C)(c1ccccc1)c1ccccc1)C2`, the pKi was 8.4.

`CN1CCCC(COC(=O)C(C)(c2ccccc2)c2ccccc2)C1` (stereo not drawn) showed a pKi of 7.8.

`CN1CCCC1CCOC(=O)C(C)(c1ccccc1)c1ccccc1` (stereo not drawn) gave a pKi of 8.

Compound `CN1CCC(OC(=O)C(CO)c2ccc(C(F)(F)F)cc2)CC1` (stereo not drawn) has a pKi of 7.7.

With `CC(C)N(COC(=O)c1ccc(N)cc1)C(C)C` the pKi was 5.3.

Work on `C[N+](C)(C)CC#CC(O)(c1cccs1)C1CCCC1` (stereo not drawn) yielded a pKi of 7.1.

For `CCN1CCC(COC(=O)C(C)(c2ccccc2)c2ccccc2)CC1`, the pKi was 6.9.

Work on `CN1CCC(OC(=O)C(C)(c2ccccc2)c2ccccc2)CC1` yielded a pKi of 8.8.

Compound `CC[N+](C)(CC)CC(=O)Nc1ccc(Cl)c(Cl)c1` has a pKi greater than 3.33.

For `CC(C(=O)OCCN1CCCC1)(c1ccccc1)c1ccccc1`, the pKi was 8.2.

Work on `CC[N+]1(CCOC(=O)C(CO)c2ccccc2)CCCCC1` (stereo not drawn) yielded a pKi of 8.7.

Compound `CC(C(=O)OCCN1CCCCC1)(c1ccccc1)c1ccccc1` has a pKi of 8.2.

For `CCN1CCCC(OC(=O)C(C)(c2ccccc2)c2ccccc2)C1` (stereo not drawn), the pKi was 6.3.

Reference: ChEMBL document CHEMBL1151914, “3D-QSAR studies of 2,2-diphenylpropionates to aid discovery of novel potent muscarinic antagonists” (Bioorg Med Chem, 2009)
